Measurements: patent US20260250290A1 (BRISTOL-MYERS SQUIBB COMPANY, priority 2023, published 2026)

What follows are molecules tested against T1, SGK1 (Homo sapiens, UniProt O00141) (assay: SGK1 inhibition Assay B (Echo mass spectrometry of phosphorylated peptide product)). Conditions: 60 min at room temperature.
T1 sequence (O00141 1-431): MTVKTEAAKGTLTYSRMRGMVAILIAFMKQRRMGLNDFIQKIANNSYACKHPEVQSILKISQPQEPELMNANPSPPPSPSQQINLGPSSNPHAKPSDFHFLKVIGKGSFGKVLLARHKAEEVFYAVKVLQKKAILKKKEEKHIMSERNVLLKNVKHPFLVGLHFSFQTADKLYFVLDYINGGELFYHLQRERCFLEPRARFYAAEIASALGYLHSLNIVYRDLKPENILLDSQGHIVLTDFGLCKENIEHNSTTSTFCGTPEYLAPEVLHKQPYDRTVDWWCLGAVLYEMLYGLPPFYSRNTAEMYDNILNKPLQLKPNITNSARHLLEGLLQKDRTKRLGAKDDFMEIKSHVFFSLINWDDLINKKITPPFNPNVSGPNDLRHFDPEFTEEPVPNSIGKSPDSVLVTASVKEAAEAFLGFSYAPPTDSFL
Assay type: biochemical

In order of falling IC50:
1. CC(=O)N1CC=C(c2cc(N3CCC[C@@H](NC(=O)c4sc(Cl)cc4OC4CC5COCC(C4)N5CCO)C3)c3c(N)ncnn23)C1 (some centres unmarked) [Example 986]  37 nM
2. CN1[C@@H]2CC[C@H]1C[C@H](Oc1cc(Cl)sc1C(=O)N[C@@H]1CCCN(c3cc(-c4ccnn4C)n4ncnc(N)c34)C1)C2 [Example 975, N—((R)-1-(4-amino-7-(1-methyl-1H-pyrazol-5-yl)pyrrolo[2,1-f][1,2,4]triazin-5-yl)piperidin-3-yl)-5-chloro-3-(((1R,3s,5S)-8-methyl-8-azabicyclo[3.2.1]octan-3-yl)oxy)thiophene-2-carboxamide]  7 nM
3. CCN1CCC(Oc2nc(C)sc2C(=O)N[C@@H]2CCCN(c3cc(-c4ccc(C(N)=O)c(F)c4)n4ncnc(N)c34)C2)CC12CCC2 (some centres unmarked) [Example 982]  6 nM
4. CCN1[C@@H]2CCC[C@H]1C[C@H](Oc1nc(C)sc1C(=O)N[C@@H]1CCCN(c3cc(-c4ccc(=O)n(CC(F)F)n4)n4ncnc(N)c34)C1)C2 [Example 970, N—((R)-1-(4-amino-7-(1-(2,2-difluoroethyl)-6-oxo-1,6-dihydropyridazin-3-yl)pyrrolo[2,1-f][1,2,4]triazin-5-yl)piperidin-3-yl)-4-(((1R,3s,5S)-9-ethyl-9-azabicyclo[3.3.1]nonan-3-yl)oxy)-2-methylthiazole-5-carboxamide]  5 nM
5. CC(C)S(=O)(=O)c1ccc(-c2cc(N3CCC[C@@H](NC(=O)c4sc(Cl)cc4O[C@@H]4C[C@H]5CC[C@@H](C4)N5C)C3)c3c(N)ncnn23)cn1 [Example 969, N-[(3R)-1-{4-amino-7-[6-(propane-2-sulfonyl)pyridin-3-yl]pyrrolo[2,1-f][1,2,4]triazin-5-yl}piperidin-3-yl]-5-chloro-3-{[(R,3R,5S)-8-methyl-8-azabicyclo[3.2.1]octan-3-yl]oxy}thiophene-2-carboxamide]  4 nM
6. Cc1nc(O[C@H]2CC[C@@H](N(C)C)CC2)c(C(=O)N[C@@H]2CCCN(c3cc(-c4ccc(=O)n(CC(F)(F)F)n4)n4ncnc(N)c34)C2)s1 [Example 973, N—((R)-1-(4-amino-7-(6-oxo-1-(2,2,2-trifluoroethyl)-1,6-dihydropyridazin-3-yl)pyrrolo[2,1-f][1,2,4]triazin-5-yl)piperidin-3-yl)-4-(((1s,4S)-4-(dimethylamino)cyclohexyl)oxy)-2-methylthiazole-5-carboxamide]  4 nM
7. Cc1nc(O[C@H]2CC[C@@H](NCCC#N)CC2)c(C(=O)N[C@@H]2CCCN(c3cc(-c4ccc(C(N)=O)c(F)c4)n4ncnc(N)c34)C2)s1 [Example 979, N—((R)-1-(4-Amino-7-(4-carbamoyl-3-fluorophenyl)pyrrolo[2,1-f][1,2,4]triazin-5-yl)piperidin-3-yl)-4-(((1s,4S)-4-((2-cyanoethyl)amino)cyclohexyl)oxy)-2-methylthiazole-5-carboxamide]  4 nM
8. CCN1CCC(Oc2nc(C)sc2C(=O)N[C@@H]2CCCN(c3cc(C4=CCN(C(=O)C5(C#N)CC5)C4)n4ncnc(N)c34)C2)CC1(C)C (stereo partly drawn) [Example 985, N—((R)-1-(4-Amino-7-(1-(1-cyanocyclopropane-1-carbonyl)-2,5-dihydro-1H-pyrrol-3-yl)pyrrolo[2,1-f][1,2,4]triazin-5-yl)piperidin-3-yl)-4-((1-ethyl-2,2-dimethylpiperidin-4-yl)oxy)-2-methylthiazole-5-carboxamide]  4 nM
9. Cc1nc(O[C@H]2CC[C@@H](NCC(C)(C)O)CC2)c(C(=O)N[C@@H]2CCCN(c3cc(-c4ccc(C(N)=O)c(F)c4)n4ncnc(N)c34)C2)s1 [Example 978, N—((R)-1-(4-Amino-7-(4-carbamoyl-3-fluorophenyl)pyrrolo[2,1-f][1,2,4]triazin-5-yl)piperidin-3-yl)-4-(((1s,4S)-4-((2-hydroxy-2-methylpropyl)amino)cyclohexyl)oxy)-2-methylthiazole-5-carboxamide]  3 nM
10. CC(=O)N1CC=C(c2cc(N3CCC[C@@H](NC(=O)c4sc(Cl)cc4O[C@@H]4C[C@H]5CC[C@@H](C4)O5)C3)c3c(N)ncnn23)C1 [Example 988, 3-(((IR,3s.5S)-8-oxabicyclo[3.2.1]octan-3-y1)oxy)-N-((R)-1-(7-(1-acetyl-2,5-dihydro-1H-pyrrol-3-y1)-4-aminopyrrolo[2,1-f][1,2,4]triazin-5-y1)piperidin-3-y1)-5-chlorothiophene-2-carboxamide]  3 nM
11. Nc1ncnn2c(-c3ccc(=O)n(CC(F)F)n3)cc(N3CCC[C@@H](NC(=O)c4sc(Cl)cc4O[C@@H]4C[C@H]5CCC[C@@H](C4)N5CCO)C3)c12 [Example 972, N—((R)-1-(4-amino-7-(1-(2,2-difluoroethyl)-6-oxo-1,6-dihydropyridazin-3-yl)pyrrolo[2,1-f][1,2,4]triazin-5-yl)piperidin-3-yl)-5-chloro-3-(((1R,3s,5S)-9-(2-hydroxyethyl)-9-azabicyclo[3.3.1]nonan-3-yl)oxy)thiophene-2-carboxamide]  2 nM
12. COCCn1nc(-c2cc(N3CCC[C@@H](NC(=O)c4sc(Cl)cc4O[C@@H]4C[C@H]5CCC[C@@H](C4)N5C)C3)c3c(N)ncnn23)ccc1=O [Example 971, N—((R)-1-(4-Amino-7-(1-(2-methoxyethyl)-6-oxo-1,6-dihydropyridazin-3-yl)pyrrolo[2,1-f][1,2,4]triazin-5-yl)piperidin-3-yl)-5-chloro-3-(((1R,3s,5S)-9-methyl-9-azabicyclo[3.3.1]nonan-3-yl)oxy)thiophene-2-carboxamide]  1 nM
13. CN1[C@@H]2CC[C@H]1C[C@H](Oc1cc(Cl)sc1C(=O)N[C@@H]1CCCN(c3c(F)c(C4=CCOC4)n4ncnc(N)c34)C1)C2 [Example 976, N—((R)-1-(4-amino-7-(2,5-dihydrofuran-3-yl)-6-fluoropyrrolo[2,1-f][1,2,4]triazin-5-yl)piperidin-3-yl)-5-chloro-3-(((1R,3s,5S)-8-methyl-8-azabicyclo[3.2.1]octan-3-yl)oxy)thiophene-2-carboxamide]  1 nM
14. Cc1nc(O[C@H]2CC[C@@H](NC(C)C)CC2)c(C(=O)N[C@@H]2CCCN(c3cc(C4=CC(=O)OC4)n4ncnc(N)c34)C2)s1 [Example 977, N—((R)-1-(4-amino-7-(5-oxo-2,5-dihydrofuran-3-yl)pyrrolo[2,1-f][1,2,4]triazin-5-yl)piperidin-3-yl)-4-(((1s,4S)-4-(isopropylamino)cyclohexyl)oxy)-2-methylthiazole-5-carboxamide]  1 nM
15. Cc1nc(O[C@H]2CC[C@@H](NC3CCOC3)CC2)c(C(=O)N[C@@H]2CCCN(c3cc(-c4ccc(=O)n(CC(F)F)n4)n4ncnc(N)c34)C2)s1 (stereo partly drawn) [Example 980, N—((R)-1-(4-Amino-7-(1-(2,2-difluoroethyl)-6-oxo-1,6-dihydropyridazin-3-yl)pyrrolo[2,1-f][1,2,4]triazin-5-yl)piperidin-3-yl)-2-methyl-4-(((1s,4S)-4-((tetrahydrofuran-3-yl)amino)cyclohexyl)oxy)thiazole-5-carboxamide]  1 nM
16. CC(=O)N1CC=C(c2cc(N3CCC[C@@H](NC(=O)c4sc(Cl)cc4OC4CCCN(C(C)C)CC4)C3)c3c(N)ncnn23)C1 (some centres unmarked) [Example 987]  1 nM
17. CC(=O)N1CC=C(c2cc(N3CCC[C@@H](NC(=O)c4sc(Cl)cc4OC4CC5COCC(C4)N5)C3)c3c(N)ncnn23)C1 (stereo partly drawn) [Example 986E, 3-((3-Oxa-9-azabicyclo[3.3.1]nonan-7-yl)oxy)-N—((R)-1-(7-(1-acetyl-2,5-dihydro-1H-pyrrol-3-yl)-4-aminopyrrolo[2,1-f][1,2,4]triazin-5-yl)piperidin-3-yl)-5-chlorothiophene-2-carboxamide]  0.9 nM
